Test results published in US20240260578A1, “HERBICIDAL COMPOSITIONS AND RELATED METHODS” (BELCHIM Crop Protection USA LLC, priority 2023, published 2024).
Several values for one entry are separate records, joined by “and”; a condition that tells them apart may be missing. Equal values may be shown once.

Columns and labels:
Format in all cases: in vivo
[1] = tested on: Yellow nutsedge (Cypersus esculentus); assay: Field trial, post-emergent control of established Yellow nutsedge (Example 1); details: 10 DAT, pyridate 24 fluid ounces/acre, sulfentrazone 12 fluid ounces/acre, visual estimate vs untreated plot, non-replicated
Method: Field trials were conducted to evaluate the efficacy of pyridate herbicide alone and in combination with sulfentrazone when applied in a post-emergent manner to established Yellow nutsedge (Cypersus esculentus). The field trial was conducted alongside of a gravel path on the Corbett Farm located Batten Pond Road in Selma, NC 27576. Yellow nutsedge was established and ranged from 8-12 inches in height. The distribution of weeds in the plots was uniform throughout this location.
Individual treatments were applied on a 1×4 meter squared plot area. The experimental design was a non-replicated linear strip plot. The applications were made with a RYOBI electric 4 gallon backpack sprayer equipped with 11004 nozzles with a spray pressure of 35 psi calibrated to deliver about 40 gallons per acre spray volume, respectively. All applications were applied on the same day. The wind speed was less than 10 mph at time of application.
Pyridate used in this trial was a five pound active ingredient per gallon emulsifiable concentrate (EC) marketed by Belchim Crop Protection as Tough® 5EC Herbicide. The sulfentrazone used in this trial was Sulfentrazone 4L Select marketed by Prime Source, a division of Albaugh, LLC. […]

[2] = tested on: green Kyllinga (Kyllinga brevifolia); assay: Post-emergent control of green Kyllinga, Hampstead, North Carolina (Example 3); details: 35 DAT, rates per Table 3
Method: A study was conducted to evaluate and compare the post-emergent control of green Kyllinga (Kyllinga brevifolia) versus the industry standards of Sulfentrazone Select or Halosulfuron 75 WDG. The study was conducted in Hampstead, North Carolina at Old Pointe Country Club. A randomized block design with four replications was utilized. Treatments were applied with a CO2 pressurized spray system. Irrigations were suspended for at least 24 hours after application.

[3] = tested on: Yellow Nutsedge; assay: Post-emergent control of Yellow Nutsedge, Hampstead, North Carolina (Example 4); details: 35 DAT, rates per Table 5
Method: A study was conducted to evaluate and compare the post-emergent control of Yellow Nutsedge versus the industry standards of Sulfentrazone Select or Halosulfuron 75 WDG. The study was conducted in Hampstead, North Carolina at Old Pointe Country Club. A randomized block design with four replications was utilized. Treatments were applied with a CO2 pressurized spray system. Irrigations were suspended for at least 24 hours after application. [table]

Row | Compound | Percentage (%) Control 10 Days after Treatment (DAT) [1] | Percentage Control [2] [%] | Percentage Control [3] [%]
1 | CCCCCCCCSC(=O)Oc1cc(Cl)nnc1-c1ccccc1 [Pyridate, pyridate] | approximately 20% and 20% | – | –
2 | Cc1nn(-c2cc(NS(C)(=O)=O)c(Cl)cc2Cl)c(=O)n1C(F)F [Sulfentrazone, sulfentrazone] | approximately 70% and 70% | 43.3 | 60
